For data set [1] the following is noted: cited from earlier work.
Data set [2] concerns RMA tumor. The experiment in a line: RMA tumor graft in C57/BL6 mice. The class given is in vivo, mouse. As to the method: C57/BL6 mice were implanted subcutaneously in the right dorsal flank region with RMA (1×10^6 cells). One day after grafting, Roc-Q (1 mg/kg body weight, dissolved in DMSO and diluted in olive oil) was administered by intraperitoneal injection (i.p.) as indicated in the figure legend. The control group was treated in an analogous manner with the vehicle. The tumor size was measured with a micrometer caliper at the indicated times and the tumor volume (V) was calculated by the formula V=(a^2×b)/2, where “a” is the width and “b” is the length in mm (Mattern et al., 1998). All protocols using and maintaining animals were approved by the German Animal Protection Authority (Office Regierungspräsidium Karlsruhe). Treated and control animals were compared for differences in tumor growth after end of treatment using the non-parametric method in a one-sided statistical test at the significance level of 0.05 (Koziol et al., 1981).
To investigate whether the effect of Roc on activation-induced cell death is also occurred in vivo, RMA cells were grafted subcutaneously into the C57/BL6 mice. One day after xenografting, the mice were randomly separated into four groups (each group contains 5 mice). One group with no treatment was taken as a control, and the other three groups received Con A, Roc-Q, or a combination of Roc-Q and Con A, respectively, three times per week by intraperitoneal injection (i.p.). Two independent experiments were carried out. In the first experiment, RMA (10×10^5 cells)-grafted mice were treated with or without 1 mg/kg body weight of Roc-Q in the presence or absence of Con A as described in FIG. 4A. No toxicity was seen up to a dose of 10 mg/kg body weight (Lee et al., 1998). Acute toxicity was reported with an LD50 of >300 mg/kg (Umezawa et al., 1997). […] In this experiment, the control mice developed tumors after 9 days.

Data set [3] has as its system mouse leukemic RMA T cells. The experiment in a line: Activation-induced apoptosis in RMA cells in vitro. The class given is cell-based. The procedure: (§1) The mouse lymphoma cell line RMA (van Hall et al., 2000), the human leukemic T cell lines DND-41 (contains a p53 mutation), Jurkat J16, Jurkat A3 and Jurkat A3 deficient in FADD (J-FADDdef) (purchased from American Type Culture Collection, ATCC, Manassas, USA) were cultured in RPMI 1640 medium (GIBCO laboratories, Grand Island, N.Y.) supplemented with 10% FCS, 50 μg/ml gentamicin (GIBCO), 6 mM HEPES (GIBCO, 1 M solution), and 2 mM L-glutamine (GIBCO, 200 mM solution) at 37° C. and 5% CO2. T cells were stimulated with either plate-bound αCD3 (OKT3 10 μg/ml) or PMA (5 ng/ml) plus ionomycin (0.5 μM).
(§2) Cells were plated in triplicates and treated for the indicated periods of time at 37° C. with different reagents as described in the figure legends. Rocaglamide derivatives used in this study were isolated from various Aglaia species to at least 98% purity determined by HPLC as reported previously (Schneider et al., 2000). The structures of the compounds were unequivocally elucidated based on their NMR and mass spectra as described before (Schneider et al., 2000). Apoptotic cell death was examined by two parameters: FSC/SSC index of apoptotic-like change in cell size and granularity by FACScan and by analysis of DNA fragmentation (Vermes et al., 2000).

Data set [4] is described as follows: Glutamate pyruvate transaminase (GPT) liver toxicity in mice. The class given is in vivo, mouse. Conditions: RMA-grafted mice treated with Roc-Q, Con A or both; normal GPT below 50 U/l. As to the method: To examine the liver toxicity of Rocaglamide, the activities of GPT were determined from the heparinized blood of mice by test strips Reflotron® GPT as described by the instruction of the manufacture (Roche 10745138). The normal levels of GPT activity should be below 50 U/l.

Data set [5] deals with leukemia cell line Jurkat. The experiment in a line: Apoptosis (FSC/SSC) in Jurkat with TNFα or TRAIL. The class given is cell-based. Conditions: 24 h. The procedure:
(§3) Pancreatic carcinoma cell lines MiaPaca and Capan-1 were treated with Roc-A (50 nM) in combination with different doses of anticancer reagents for 48 h. Apoptotic cell death was determined by Nicoletti (DNA-fragmentation). The leukemia cell line Jurkat was treated with either TNFα (20 ng/ml) or TRAIL (2 ng/ml) in combination with different doses of rocaglamide as indicated for 24 h. Apoptotic cell death was determined by FSC/SSC.

The subject of data set [6] is normal peripheral blood T cells. The experiment in a line: Activation-induced cell death in normal peripheral blood T cells (day 0, day 6). The class given is cell-based, human. The procedure: Human peripheral T cells were prepared as described previously (Klas et al., 1993) and were more than 90% CD3 positive. For activation, resting T cells (day 0) were cultured at 2×10^6 cells/ml with 1 μg/ml PHA for 16 h (day 1). Day 1 T cells were then washed three times and cultured for an additional 5 days in the presence of 25 U/ml IL-2 (day 6).
as §2

Data set [7] relates to MiaPaca pancreatic carcinoma cell line. The experiment in a line: Apoptosis (Nicoletti) in MiaPaca with anticancer reagents. The class given is cell-based. Particulars: Roc-A 50 nM with different doses of anticancer reagents, 48 h. As to the method:
as §3

For data set [8], the system named is Capan-1 pancreatic carcinoma cell line. Description: Apoptosis (Nicoletti) in Capan-1 with anticancer reagents. The class given is cell-based. Particulars: Capan-1, Roc-A 50 nM with different doses of anticancer reagents, 48 h. As to the method: as §3
Data set [9] concerns caspase-8, -9, -3, Bid, PARP. Description: Western blot of apoptotic pathway proteins in Jurkat T cells. Conditions: 24 h. The class given is cell-based, human. The procedure: 1×10^6 cells were sedimented and lysed for 15 min in ice-cold lyses buffer (29 mM Tris-HCl, pH 7.4, 137 mM NaCl, 10% (w/v) Glycerin, 1% (v/v) Triton X-100, 2 mM EDTA, 1 mM PMSF, 0.4 mM […], 10 mM NaF, complete protease inhibitor cocktail, Roche). After removing the cell debris by centrifugation at 13,000 rpm for 15 min, equal amounts of proteins were separated on a 12% SDS-PAGE, blotted onto a nitrocellulose membrane (Amersham Biosciences, Little Chalfon, UK) and blocked with 5% non-fat drymilk in PBS/Tween (0.05% Tween-20 in PBS). […]
(In general: A western blot detects proteins with antibodies after separation by electrophoresis.)

Data set [10] deals with human leukemic DND-41 T cells (p53 mutation). The experiment in a line: Apoptosis in DND-41 T cells. The class given is cell-based. The procedure:
as §1, §2

For data set [11], the system named is human leukemic Jurkat T cells. Description: Apoptosis (FSC/SSC, DNA fragmentation) in Jurkat T cells. The class given is cell-based. As to the method: as §1, §2
In data set [12] the test system is Hodgkin lymphoma cell line L1236. Description: Apoptosis (DNA fragmentation) in L1236 cells. The class given is cell-based, human. Conditions: L1236, TRAIL alone, different concentrations, 48 h. The procedure: (§4) The human malignant cell lines used in this study are: the human leukemic T cell lines CEM and Jurkat (J16), the HTLV-1 ATL derived cell lines SP, MT-2, CHAMP, and ATL-3, and Hodgkin lymphoma derived cell lines L1236 and KM-H2. Human peripheral blood T cells were prepared as described previously (Zhu et al., 2009) and were more than 90% CD3 positive. All cells were cultured in RPMI 1640 medium (GIBCO laboratories, Grand Island, N.Y.) supplemented with 10% FCS, 50 μg/ml gentamicin (GIBCO), 6 mM HEPES (GIBCO, 1 M solution), and 2 mM L-glutamine (GIBCO, 200 mM solution) at 37° C. and 5% CO2.
(§5) Cells were plated in triplicates and treated for the indicated periods of time at 37° C. with different doses of Rocaglamide AR (Roc-AR) (>98% pure, assessed by HPLC) (Proksch et al., 2005), Superkiller-TRAIL (Alexis) or LZ-CD95L (Walczak et al., 1999) alone, or in combinations as indicated in figures. Apoptotic cell death was determined by analysis of DNA fragmentation (% DNA fragmentation) as previously described (Krueger et al., 2006). Specific apoptosis was calculated as (percentage of experimental apoptosis−percentage of spontaneous apoptosis)/(100−percentage of spontaneous apoptosis)×100.

The test system of data set [13] is Hodgkin lymphoma cell line KM-H2. The experiment in a line: Apoptosis (DNA fragmentation) in KM-H2 cells. The class given is cell-based, human. Conditions: KM-H2, TRAIL alone, different concentrations, 48 h. The procedure:
as §4, §5

Data set [14] relates to HTLV-1-associated ATL cell lines SP, MT-2, ATL-3 and CHAMP. The experiment in a line: Apoptosis (DNA fragmentation) in HTLV-1-associated ATL cell lines. The class given is cell-based, human. Particulars: HTLV-1-infected ATL cell lines, TRAIL alone, different concentrations. As to the method:
as §4, §5

Some results are limits rather than exact numbers.

Consider `CNC(=O)C1C(O)C2(O)c3c(OC)cc(OC)cc3OC2(c2ccc(OC)cc2)C1c1ccccc1` (centres unmarked) [Roc-Q], for which the “dose up to which no toxicity was seen” value in data set [1] (Lee et al., 1998) was ≤ 10 mg/kg body weight. Also, in data set [1] (Umezawa et al., 1997), the “acute toxicity LD50” value is > 300 mg/kg. In addition, in data set [2] (first experiment, 10×10^5 RMA cells, single agent only (Roc-Q 1 mg/kg or Con A 5 mg/kg) i.p. three times per week), the “tumor size and tumor growth rate” value was “No significant changes in tumor size and tumor growth rate”. The tumor growth result in [2] (first experiment, Roc-Q 1 mg/kg combined with Con A 5 mg/kg i.p.) is “delayed tumor growth”; in data set [2] (second experiment, 2.5×10^5 RMA cells, single agent only (Roc-Q 2.5 mg/kg or Con A 5 mg/kg) i.p.), “Significantly delayed tumor growth”. Moreover, in data set [2] (first experiment, Roc-Q 1 mg/kg combined with Con A 5 mg/kg i.p., final day), the tumor size result is “reduced tumor sizes”. Further, the body weight loss entry in data set [2] (mice after treatment with Roc-Q, Con A or both) was “no body weight loss”. The “tumor progression and tumor growth” value in [2] (second experiment, Roc-Q 2.5 mg/kg combined with Con A 5 mg/kg, except for one mouse) was “further inhibition”. In addition, in data set [2] (second experiment, Roc-Q alone 2.5 mg/kg), the “tumor size and tumor weight” value is “reduced tumor sizes and tumor weight”. Besides, the “PMA/ionomycin- or Con A-stimulation induced cell death” value in data set [3] is “enhanced”. Also, the “liver toxicity (GPT activity)” value in data set [4] is “No liver toxicity”.
For the compound `COc1ccc([C@@]23Oc4cc(OC)cc(OC)c4[C@]2(O)[C@H](O)[C@H](C(=O)N(C)C)[C@H]3c2ccccc2)cc1` [rocaglamide], the apoptotic cell death entry in [5] (TNFα 20 ng/ml with different doses of rocaglamide) and in [5] (TRAIL 2 ng/ml with different doses of rocaglamide) was “synergistically increased the apoptic cell death” each time.
With Roc-A, the toxicity entry in data set [6] (day 0 (resting) T cells, Roc-A alone 50 nM, 48 h) is “no toxicity”. For the same compound, the cell death entry in data set [6] (day 0 T cells, Roc-A 50 nM with PMA/ionomycin, 48 h) is reported as “did not increase cell death”. Moreover, the PMA/ionomycin-induced cell death result in [6] (day 6 (pre-activated) T cells re-stimulated with PMA/ionomycin, Roc-A 50 nM) is recorded as “did not further enhance PMA/ionomycin-induced cell death”. Besides, the apoptotic cell death result is “synergistically increased the apoptic cell death” in [7]; “synergistically increased the apoptic cell death” in data set [8]; “dramatic increase in apoptotic cell death” in data set [10] (DND-41, combination of Roc-A and PMA/ionomycin stimulation); “dose-dependent increase in apoptotic cell death” in data set [11] (Jurkat T cells stimulated with αCD3 or PMA/ionomycin in the presence of Roc-A); “enhanced apoptotic cell death” in data set [11] (Jurkat, Roc-A 50 nM combined with anti-CD95 antibody αAPO-1, 24 h); “enhanced apoptotic cell death” in data set [11] (Jurkat, Roc-A 50 nM combined with recombinant LZ-CD95L, 24 h). Also, the “caspase and PARP cleavage (Western blot)” value in data set [9] (Roc-A alone) was “activation of caspase-9 and generation of a detectable amount of the active p17 caspase-3 product and weak PARP cleavage”. The “cleavage of caspase-8 (Western blot)” value in data set [9] (Roc-A with T-cell stimulation (PMA/ionomycin)) was “strongly increased cleavages of caspase-8”. In addition, the “PMA/ionomycin- or Con A-stimulation induced cell death” value in data set [3] was “enhanced”. For the same compound, the “cell death compared to Jurkat T cells” value in data set [10] (DND-41, Roc-A alone) is “more resistant”.
With TRAIL, the TRAIL-mediated apoptosis result in data set [12] and in data set [13] was “completely resistant” throughout. For the same compound, in [14], the TRAIL-induced apoptosis entry is listed as “resistant to TRAIL-induced apoptosis”.

The values above are taken from patent US9387192B2, “Combination of rocaglamide and apoptosis inducing substances for the treatment of cancer” (DKFZ DEUTCHERS KREBSFORSCHUNGSZENTRUM, priority 2008, dated 2016).
